Test results published in paper PMC7127101 (Bioorganic & Medicinal Chemistry Letters, 2010).

Target: SARS-CoV 3CL^pro (Severe acute respiratory syndrome coronavirus, UniProt P0C6X7)
Format: biochemical

| SMILES | Inhibition type | V max [intensity min^−1] | fold smaller IC50 value compared with that of reference compounds [fold] |
| --- | --- | --- | --- |
| CC1=C(O)C(=O)C=C2C1=CC=C1[C@@]2(C)CC[C@@]2(C)[C@@H]3C[C@@H](C)C(=O)C[C@]3(C)CC[C@]12C [Compound 3, tingenone] | Competitive (4.0 ± 0.1) | – | – |
| CC1=C(O)C(=O)C=C2C1=CC=C1[C@@]2(C)CC[C@@]2(C)[C@@H]3C[C@](C)(C(=O)O)CC[C@]3(C)CC[C@]12C [Compound 1, celastrol] | Competitive (4.2 ± 0.6) | – | – |
| CC1=CC[C@]2(C)CC[C@]3(C)C4=CC=C5C(=CC(=O)C(O)=C5C)[C@]4(C)CC[C@@]3(C)[C@@H]2C1 [Compound 4, iguesterin] | Competitive (0.8 ± 0.2) | 44.4 ± 6.2 | 10 |
| COC(=O)[C@]1(C)CC[C@]2(C)CC[C@]3(C)C4=CC=C5C(=CC(=O)C(O)=C5C)[C@]4(C)CC[C@@]3(C)[C@@H]2C1 [Compound 2, pristimerin] | Competitive (3.1 ± 0.0) | – | – |
